The values below come from patent US12552775B2, “Compounds and uses thereof” (Foghorn Therapeutics Inc., priority 2020, dated 2026).

For one assay, the target named is T1, HiBit-BRM fusion protein (Homo sapiens, UniProt P51531).
T1 construct: expressed in transfected cells
As to the kind of experiment: HiBiT-BRM cell-based degradation assay (Nano-Glo HiBiT Lytic Detection, 24 h). The settings on record: stable HeLa cell line expressing HiBiT-BRM, top dose 30 μM. Summed up: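 Percent degradation was scaled between DMSO-treated cells and cells given 2 μM of a known BRM/BRG1 degrader. Readout was NanoBiT luminescence after lytic detection. HeLa cells stably expressing HiBiT-BRM were dosed for 24 h, 10 points, 3-fold steps from 30 μM final, in duplicate.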

For assay [1], the target named is T2, HiBit-BRG1 fusion protein (Homo sapiens, UniProt P51532).
T2 construct: expressed in transfected cells
T2 sequence (P51532 whole entry, the tested form may be a part): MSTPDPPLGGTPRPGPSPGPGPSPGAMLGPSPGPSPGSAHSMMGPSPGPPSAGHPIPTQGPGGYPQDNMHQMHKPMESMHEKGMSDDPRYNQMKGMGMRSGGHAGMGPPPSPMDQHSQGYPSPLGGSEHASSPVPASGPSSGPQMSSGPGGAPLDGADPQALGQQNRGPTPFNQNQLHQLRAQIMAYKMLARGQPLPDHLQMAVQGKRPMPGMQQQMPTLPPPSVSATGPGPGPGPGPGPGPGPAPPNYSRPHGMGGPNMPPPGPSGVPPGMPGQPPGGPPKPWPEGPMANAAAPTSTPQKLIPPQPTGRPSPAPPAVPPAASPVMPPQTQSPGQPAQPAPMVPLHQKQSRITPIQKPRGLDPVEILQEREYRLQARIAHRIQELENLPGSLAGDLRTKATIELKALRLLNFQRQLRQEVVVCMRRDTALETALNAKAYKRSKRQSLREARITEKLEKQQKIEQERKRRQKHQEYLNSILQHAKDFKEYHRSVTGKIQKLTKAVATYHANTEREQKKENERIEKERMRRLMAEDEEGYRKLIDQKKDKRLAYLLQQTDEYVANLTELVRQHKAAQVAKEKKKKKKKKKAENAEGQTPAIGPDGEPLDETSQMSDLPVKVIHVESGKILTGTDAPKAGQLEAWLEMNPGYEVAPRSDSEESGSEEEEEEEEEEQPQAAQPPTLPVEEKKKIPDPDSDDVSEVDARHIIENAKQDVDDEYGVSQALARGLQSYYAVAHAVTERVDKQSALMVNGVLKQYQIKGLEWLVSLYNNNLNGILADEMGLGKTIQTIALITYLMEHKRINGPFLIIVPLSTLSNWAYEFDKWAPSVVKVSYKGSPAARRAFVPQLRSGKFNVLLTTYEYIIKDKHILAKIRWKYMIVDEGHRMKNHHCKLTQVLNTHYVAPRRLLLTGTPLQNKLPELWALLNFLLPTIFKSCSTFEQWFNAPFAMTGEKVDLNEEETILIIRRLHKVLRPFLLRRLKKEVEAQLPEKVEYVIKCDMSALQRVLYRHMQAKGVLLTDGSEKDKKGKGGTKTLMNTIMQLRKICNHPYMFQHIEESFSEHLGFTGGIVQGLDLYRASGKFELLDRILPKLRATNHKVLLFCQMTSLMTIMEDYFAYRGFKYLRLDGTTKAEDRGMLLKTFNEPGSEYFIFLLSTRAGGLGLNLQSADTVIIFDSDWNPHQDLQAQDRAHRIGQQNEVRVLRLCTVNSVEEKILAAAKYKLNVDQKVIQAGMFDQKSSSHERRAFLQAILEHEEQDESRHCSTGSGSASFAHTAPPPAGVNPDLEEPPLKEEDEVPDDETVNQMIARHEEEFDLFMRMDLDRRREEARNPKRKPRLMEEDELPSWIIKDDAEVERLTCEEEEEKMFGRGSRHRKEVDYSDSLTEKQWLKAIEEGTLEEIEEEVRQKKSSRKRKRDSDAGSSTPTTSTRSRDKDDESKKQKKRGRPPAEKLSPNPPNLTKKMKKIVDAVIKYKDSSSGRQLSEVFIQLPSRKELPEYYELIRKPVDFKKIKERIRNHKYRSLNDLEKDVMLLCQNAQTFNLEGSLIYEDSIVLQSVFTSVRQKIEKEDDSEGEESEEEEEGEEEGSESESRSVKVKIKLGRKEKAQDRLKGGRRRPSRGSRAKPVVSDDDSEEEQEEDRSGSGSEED
As to the kind of experiment: HiBiT-BRG1 cell-based degradation assay (Nano-Glo HiBiT Lytic Detection, 24 h). The settings on record: stable HeLa cell line expressing HiBit-BRG1 and LgBit, top dose 30 μM, read-out: BRG1 HiBit Degradation Maximum (%). Summed up:
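HeLa cells stably expressing HiBiT-BRG1 plus LgBiT were treated with 10-point 3-fold compound dilutions (top 30 μM final) for 24 h. Lytic Nano-Glo HiBiT luminescence was read. % degradation was normalised between DMSO (high control) and 2 μM of a reference BRM/BRG1 degrader (low control).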
(With HiBiT, luminescence reflects the tagged protein that the partner subunit can reach.)

Some results are limits rather than exact numbers.

T1 sequence (P51531 whole entry, the tested form may be a part): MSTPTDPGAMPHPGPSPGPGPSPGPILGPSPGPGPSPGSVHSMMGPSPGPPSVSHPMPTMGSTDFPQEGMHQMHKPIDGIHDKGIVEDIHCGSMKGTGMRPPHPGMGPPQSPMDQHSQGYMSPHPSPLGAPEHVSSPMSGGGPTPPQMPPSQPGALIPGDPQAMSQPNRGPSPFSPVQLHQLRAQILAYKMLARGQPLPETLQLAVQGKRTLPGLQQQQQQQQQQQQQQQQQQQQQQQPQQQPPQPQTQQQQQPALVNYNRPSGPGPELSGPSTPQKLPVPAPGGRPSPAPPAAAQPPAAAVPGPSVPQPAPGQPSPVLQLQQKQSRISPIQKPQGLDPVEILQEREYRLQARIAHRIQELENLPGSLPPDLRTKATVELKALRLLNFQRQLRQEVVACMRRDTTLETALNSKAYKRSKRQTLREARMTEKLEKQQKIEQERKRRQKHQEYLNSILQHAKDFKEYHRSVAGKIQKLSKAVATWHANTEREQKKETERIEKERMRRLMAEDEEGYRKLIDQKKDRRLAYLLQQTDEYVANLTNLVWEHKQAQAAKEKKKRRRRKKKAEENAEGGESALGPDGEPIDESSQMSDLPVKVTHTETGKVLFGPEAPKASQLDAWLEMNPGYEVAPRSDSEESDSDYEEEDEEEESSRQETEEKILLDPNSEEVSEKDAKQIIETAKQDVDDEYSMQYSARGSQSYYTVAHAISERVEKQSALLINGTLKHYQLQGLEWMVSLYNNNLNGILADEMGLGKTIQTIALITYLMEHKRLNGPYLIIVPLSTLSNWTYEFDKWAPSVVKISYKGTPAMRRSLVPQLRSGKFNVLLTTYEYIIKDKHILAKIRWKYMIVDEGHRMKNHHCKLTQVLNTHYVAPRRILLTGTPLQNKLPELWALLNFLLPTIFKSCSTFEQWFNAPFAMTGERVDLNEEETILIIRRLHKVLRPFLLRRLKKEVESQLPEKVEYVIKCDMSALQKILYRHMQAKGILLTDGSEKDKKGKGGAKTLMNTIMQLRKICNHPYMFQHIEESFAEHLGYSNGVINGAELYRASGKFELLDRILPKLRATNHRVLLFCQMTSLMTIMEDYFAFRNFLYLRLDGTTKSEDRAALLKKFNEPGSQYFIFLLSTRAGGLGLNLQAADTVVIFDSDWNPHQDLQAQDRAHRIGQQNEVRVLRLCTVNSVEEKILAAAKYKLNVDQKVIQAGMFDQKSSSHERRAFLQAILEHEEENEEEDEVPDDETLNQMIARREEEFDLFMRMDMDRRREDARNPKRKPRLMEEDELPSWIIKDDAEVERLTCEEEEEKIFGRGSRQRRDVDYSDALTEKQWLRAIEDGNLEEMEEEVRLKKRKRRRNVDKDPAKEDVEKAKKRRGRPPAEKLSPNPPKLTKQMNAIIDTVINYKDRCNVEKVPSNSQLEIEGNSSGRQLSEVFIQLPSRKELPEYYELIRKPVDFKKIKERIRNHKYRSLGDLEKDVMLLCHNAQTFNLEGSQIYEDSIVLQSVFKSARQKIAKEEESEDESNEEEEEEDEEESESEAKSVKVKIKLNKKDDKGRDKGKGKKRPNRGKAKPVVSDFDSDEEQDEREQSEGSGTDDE

Consider `Nc1nnc(-c2ccccc2O)cc1OCC12CC(CNC(=O)C3CC3CNC(=O)COc3ccc4c(c3)C(=O)N(C3CCC(=O)NC3=O)C4=O)(C1)C2` (centres unmarked) [Compound 13, N-[[3-([[3-amino-6-(2-hydroxyphenyl)pyridazin-4-yl]oxy]methyl)bicyclo[1.1.1]pentan-1-yl]methyl]-2-[(2-[[2-(2,6-dioxopiperidin-3-yl)-1,3-dioxoisoindol-5-yl]oxy]acetamido)methyl]cyclopropane-1-carboxamide], for which the “BRM HiBit Degradation Maximum (%)” value at HiBit-BRM fusion protein is reported as “C (“C” indicates maximum degradation < 50%)”. Further, the Dmax in assay [1] was less than 50%.
On the same counts, the results for `Nc1nnc(-c2ccccc2O)cc1OCCC12CC(NC(=O)CCN3CCN(c4ccc5c(c4)C(=O)N(C4CCC(=O)NC4=O)C5=O)CC3)(C1)C2` (centres unmarked) [Compound 33, N-(3-(2-((3-amino-6-(2-hydroxyphenyl)pyridazin-4-yl)oxy)ethyl)bicyclo[1.1.1]pentan-1-yl)-3-(4-(2-(2,6-dioxopiperidin-3-yl)-1,3-dioxoisoindolin-5-yl)piperazin-1-yl)propanamide] are “C (“C” indicates maximum degradation < 50%)” and less than 50%.
With `Cc1ncsc1-c1ccc(CNC(=O)[C@@H]2C[C@@H](O)CN2C(=O)[C@@H](NC(=O)CCCCCCCCCCCCCCC(=O)NC23CC(CCOc4cc(-c5ccccc5O)nnc4N)(C2)C3)C(C)(C)C)cc1` [Compound 50, N1-(3-(2-((3-amino-6-(2-hydroxyphenyl)pyridazin-4-yl)oxy)ethyl)bicyclo[1.1.1]pentan-1-yl)-N16-((S)-1-((2S,4R)-4-hydroxy-2-((4-(4-methylthiazol-5-yl)benzyl)carbamoyl)pyrrolidin-1-yl)-3,3-dimethyl-1-oxobutan-2-yl)hexadecanediamide; formic acid], the “BRM HiBit Degradation Maximum (%)” value at HiBit-BRM fusion protein is listed as “B (“B” indicates maximum degradation ≥ 50%)”. In addition, in assay [1], the Dmax was less than 50%.
On the same counts, the results for `CN(CCNC(=O)COc1ccc2c(c1)C(=O)N(C1CCC(=O)NC1=O)C2=O)CCNC(=O)C12CC(COc3cc(-c4ccccc4O)nnc3N)(C1)C2` (centres unmarked) [Compound 76, 3-(((3-amino-6-(2-hydroxyphenyl)pyridazin-4-yl)oxy)methyl)-N-(2-((2-(2-((2-(2,6-dioxopiperidin-3-yl)-1,3-dioxoisoindolin-5-yl)oxy)acetamido)ethyl)(methyl)amino)ethyl)bicyclo[1.1.1]pentane-1-carboxamide] are “C (“C” indicates maximum degradation < 50%)” and less than 50%.
Regarding `Cc1ncsc1-c1ccc(CNC(=O)[C@@H]2C[C@@H](O)CN2C(=O)[C@@H](NC(=O)C23CC(COc4cc(-c5ccccc5O)nnc4N)(C2)C3)C(C)(C)C)cc1` [Compound 105, (2S,4R)-1-((S)-2-(3-(((3-amino-6-(2-hydroxyphenyl)pyridazin-4-yl)oxy)methyl)bicyclo[1.1.1]pentane-1-carboxamido)-3,3-dimethylbutanoyl)-4-hydroxy-N-(4-(4-methylthiazol-5-yl)benzyl)pyrrolidine-2-carboxamide], on HiBit-BRM fusion protein, the “BRM HiBit Degradation Maximum (%)” value was “C (“C” indicates maximum degradation < 50%)”. In addition, the Dmax in assay [1] was less than 50%.
On the same counts, the results for `Nc1nnc(-c2ccccc2O)cc1OCC12CC(C(=O)NCCOCc3cccc(COCCOc4ccc5c(c4)C(=O)N(C4CCC(=O)NC4=O)C5=O)c3)(C1)C2` (centres unmarked) [Compound 84, 3-(((3-amino-6-(2-hydroxyphenyl)pyridazin-4-yl)oxy)methyl)-N-(2-((3-((2-((2-(2,6-dioxopiperidin-3-yl)-1,3-dioxoisoindolin-5-yl)oxy)ethoxy)methyl)benzyl)oxy)ethyl)bicyclo[1.1.1]pentane-1-carboxamide; formic acid] are “C (“C” indicates maximum degradation < 50%)” and less than 50%.
On the same counts, the results for `Cc1ncsc1-c1ccc(CNC(=O)[C@@H]2C[C@@H](O)CN2C(=O)[C@@H](NC(=O)CCCCCCCCCCC(=O)NC23CC(CCOc4cc(-c5ccccc5O)nnc4N)(C2)C3)C(C)(C)C)cc1` [Compound 47, N1-(3-(2-((3-amino-6-(2-hydroxyphenyl)pyridazin-4-yl)oxy)ethyl)bicyclo[1.1.1]pentan-1-yl)-N12-((S)-1-((2S,4R)-4-hydroxy-2-((4-(4-methylthiazol-5-yl)benzyl)carbamoyl)pyrrolidin-1-yl)-3,3-dimethyl-1-oxobutan-2-yl)dodecanediamide] are “B (“B” indicates maximum degradation ≥ 50%)” and less than 50%.
On the same counts, the results for `Cc1ncsc1-c1ccc(CNC(=O)[C@@H]2C[C@@H](O)CN2C(=O)[C@@H](NC(=O)CCCCCCCNC(=O)C23CC(COc4cc(-c5ccccc5O)nnc4N)(C2)C3)C(C)(C)C)cc1` [Compound 71, (2S,4R)-1-((S)-2-(8-(3-(((3-amino-6-(2-hydroxyphenyl)pyridazin-4-yl)oxy)methyl)bicyclo[1.1.1]pentane-1-carboxamido)octanamido)-3,3-dimethylbutanoyl)-4-hydroxy-N-(4-(4-methylthiazol-5-yl)benzyl)pyrrolidine-2-carboxamide] are “B (“B” indicates maximum degradation ≥ 50%)” and less than 50%.
Consider `Nc1nnc(-c2ccccc2O)cc1OCC12CC(C(=O)NCCCCCCNc3ccc4c(c3)C(=O)N(C3CCC(=O)NC3=O)C4=O)(C1)C2` (centres unmarked) [Compound 64, 3-(((3-amino-6-(2-hydroxyphenyl)pyridazin-4-yl)oxy)methyl)-N-(6-((2-(2,6-dioxopiperidin-3-yl)-1,3-dioxoisoindolin-5-yl)amino)hexyl)bicyclo[1.1.1]pentane-1-carboxamide], for which the “BRM HiBit Degradation Maximum (%)” value at HiBit-BRM fusion protein was “C (“C” indicates maximum degradation < 50%)”. Moreover, the Dmax in assay [1] was less than 50%.
On the same counts, the results for `Cc1ncsc1-c1ccc(CNC(=O)[C@@H]2C[C@@H](O)CN2C(=O)[C@@H](NC(=O)CCCCCCCC(=O)NC23CC(CCOc4cc(-c5ccccc5O)nnc4N)(C2)C3)C(C)(C)C)cc1` [Compound 44, N1-(3-(2-((3-amino-6-(2-hydroxyphenyl)pyridazin-4-yl)oxy)ethyl)bicyclo[1.1.1]pentan-1-yl)-N9-((S)-1-((2S,4R)-4-hydroxy-2-((4-(4-methylthiazol-5-yl)benzyl)carbamoyl)pyrrolidin-1-yl)-3,3-dimethyl-1-oxobutan-2-yl)nonanediamide] are “B (“B” indicates maximum degradation ≥ 50%)” and less than 50%.
On to `Nc1nnc(-c2ccccc2O)cc1OCC12CC(C(=O)N3CCN(CCCOc4ccc5c(c4)C(=O)N(C4CCC(=O)NC4=O)C5=O)CC3)(C1)C2` (centres unmarked) [Compound 97, 5-(3-(4-(3-(((3-amino-6-(2-hydroxyphenyl)pyridazin-4-yl)oxy)methyl)bicyclo[1.1.1]pentane-1-carbonyl)piperazin-1-yl)propoxy)-2-(2,6-dioxopiperidin-3-yl)isoindoline-1,3-dione; formic acid], for which, at HiBit-BRM fusion protein, the “BRM HiBit Degradation Maximum (%)” value was “C (“C” indicates maximum degradation < 50%)”. Also, the Dmax in assay [1] was less than 50%.
Taken in the same sequence, the figures for `Nc1nnc(-c2ccccc2O)cc1OCC12CC(C(=O)N3CCN(CC4CN(c5ccc6c(c5)C(=O)N(C5CCC(=O)NC5=O)C6=O)C4)CC3)(C1)C2` (centres unmarked) [Compound 102, 5-(3-((4-(3-(((3-amino-6-(2-hydroxyphenyl)pyridazin-4-yl)oxy)methyl)bicyclo[1.1.1]pentane-1-carbonyl)piperazin-1-yl)methyl)azetidin-1-yl)-2-(2,6-dioxopiperidin-3-yl)isoindoline-1,3-dione] were “B (“B” indicates maximum degradation ≥ 50%)” and less than 50%.
In the case of `Nc1nnc(-c2ccccc2O)cc1OCC12CC(C(=O)NCCCCNc3ccc4c(c3)C(=O)N(C3CCC(=O)NC3=O)C4=O)(C1)C2` (centres unmarked) [Compound 62, formic acid], the “BRM HiBit Degradation Maximum (%)” value on HiBit-BRM fusion protein was “C (“C” indicates maximum degradation < 50%)”. For the same molecule, the Dmax in assay [1] is less than 50%.
As for `Nc1nnc(-c2ccccc2O)cc1OCC12CC(CNC(=O)CCN3CCN(c4ccc5c(c4)C(=O)N(C4CCC(=O)NC4=O)C5=O)CC3)(C1)C2` (centres unmarked) [Compound 16, N-((3-(((3-amino-6-(2-hydroxyphenyl)pyridazin-4-yl)oxy)methyl)bicyclo[1.1.1]pentan-1-yl)methyl)-3-(4-(2-(2,6-dioxopiperidin-3-yl)-1,3-dioxoisoindolin-5-yl)piperazin-1-yl) propanamide], on HiBit-BRM fusion protein, the “BRM HiBit Degradation Maximum (%)” value is “C (“C” indicates maximum degradation < 50%)”. In addition, the Dmax in assay [1] is less than 50%.
On the same counts, the results for `Nc1nnc(-c2ccccc2O)cc1OCC12CC(C(=O)NCCOCc3cccc(COCCOc4cccc5c4C(=O)N(C4CCC(=O)NC4=O)C5=O)c3)(C1)C2` (centres unmarked) [Compound 85, 3-(((3-amino-6-(2-hydroxyphenyl)pyridazin-4-yl)oxy)methyl)-N-(2-((3-((2-((2-(2,6-dioxopiperidin-3-yl)-1,3-dioxoisoindolin-4-yl)oxy)ethoxy)methyl)benzyl)oxy)ethyl)bicyclo[1.1.1]pentane-1-carboxamide] are “C (“C” indicates maximum degradation < 50%)” and less than 50%.
As to `Cc1ncsc1-c1ccc(CNC(=O)[C@@H]2C[C@@H](O)CN2C(=O)[C@@H](NC(=O)COCCOCCOCCOCC(=O)NC23CC(CCOc4cc(-c5ccccc5O)nnc4N)(C2)C3)C(C)(C)C)cc1` [Compound 45, N1-(3-(2-((3-amino-6-(2-hydroxyphenyl)pyridazin-4-yl)oxy)ethyl)bicyclo[1.1.1]pentan-1-yl)-N14-((S)-1-((2S,4R)-4-hydroxy-2-((4-(4-methylthiazol-5-yl)benzyl)carbamoyl)pyrrolidin-1-yl)-3,3-dimethyl-1-oxobutan-2-yl)-3,6,9,12-tetraoxatetradecanediamide], at HiBit-BRM fusion protein, the “BRM HiBit Degradation Maximum (%)” value was “B (“B” indicates maximum degradation ≥ 50%)”. The Dmax in assay [1] is less than 50%.
